Reference: PubChem BioAssay (NCI)
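Results reflect a 48-hour exposure of cells in 96-well plates to compound at five concentrations. At the GI50, growth is halved. Definition used: TGI = concentration required for complete inhibition of growth.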

Legend:
Test in all cases: NCI anticancer screen, dose series, 48 h
[1] = system: MALME-3M melanoma
[2] = system: HOP-62 NSCLC
[3] = system: OVCAR-8 ovarian
[4] = system: UACC-257 melanoma
[5] = system: HCC-2998 colon
[6] = system: MDA-MB-435
[7] = system: NCI-H226 lung
[8] = system: MCF7 breast
[9] = system: KM12 colon
[10] = system: MOLT-4 leukemia
[11] = system: LOX IMVI melanoma
[12] = system: SK-MEL-28 melanoma
[13] = system: SN12C renal
[14] = system: CCRF-CEM leukemia
[15] = system: M14 melanoma
[16] = system: OVCAR-3 ovarian
[17] = system: HS 578T breast
[18] = system: COLO 205 colon
[19] = system: HL-60(TB) leukemia
[20] = system: SNB-75 CNS
[21] = system: SK-OV-3 ovarian
[22] = system: ACHN renal
[23] = system: SK-MEL-2 melanoma
[24] = system: RXF 393 renal
[25] = system: DU-145 prostate
[26] = system: SF-268 CNS
[27] = system: SR leukemia
[28] = system: MDA-MB-231 breast
[29] = system: U251 CNS
[30] = system: BT-549 breast
[31] = system: SNB-19 CNS
[32] = system: PC-3 prostate
[33] = system: OVCAR-5 ovarian
[34] = system: IGROV1 ovarian
[35] = system: T-47D breast
[36] = system: SF-295 CNS
[37] = system: A498 renal
[38] = system: SF-539 CNS
[39] = system: NCI-H460 lung
[40] = system: HT29 colon
[41] = system: HOP-92 NSCLC
[42] = system: NCI-H23 lung
[43] = system: CAKI-1 renal
[44] = system: HCT-15 colon
[45] = system: SW-620 colon
[46] = system: NCI-H522 lung
[47] = system: NCI/ADR-RES ovarian
[48] = system: OVCAR-4 ovarian
[49] = system: TK-10 renal
[50] = system: UO-31 renal
[51] = system: EKVX NSCLC
[52] = system: A549 NSCLC
[53] = system: UACC-62 melanoma
[54] = system: RPMI-8226 leukemia
[55] = system: HCT-116 colon
[56] = system: SK-MEL-5 melanoma
[57] = system: 786-0 renal
[58] = system: K-562 leukemia

## COc1cccc(-c2c(-c3ccccc3)[nH]c(C)c2C(=O)ONC(=O)c2ccccc2)c1
[1]
  TGI: 28.4 µM
[2]
  TGI: 10 µM
[3]
  TGI: 19.1 µM
[4]
  TGI: 26.6 µM
[5]
  TGI: 27.4 µM
[6]
  TGI: 13.7 µM
[7]
  TGI: 30.7 µM
[8]
  TGI: 24 µM
[9]
  TGI: 32.4 µM
[10]
  TGI: 18.2 µM
[11]
  TGI: 3.91 µM
[12]
  TGI: 30.4 µM
[13]
  TGI: 12.8 µM
[14]
  TGI: > 27.3 µM
[15]
  TGI: 20 µM
[16]
  TGI: 22.8 µM
[17]
  TGI: 24 µM
[18]
  TGI: 32.6 µM
[19]
  TGI: 4.37 µM
[20]
  TGI: 18.9 µM
[21]
  TGI: 29.8 µM
[22]
  TGI: 10.9 µM
[23]
  TGI: 23.6 µM
[24]
  TGI: 17.1 µM
[25]
  TGI: 11.8 µM
[26]
  TGI: 22 µM
[27]
  TGI: 15.5 µM
[28]
  TGI: 22.9 µM
[29]
  TGI: 11.4 µM
[30]
  TGI: 18.7 µM
[31]
  TGI: 23.8 µM
[32]
  TGI: 23.9 µM
[33]
  TGI: 26.2 µM
[34]
  TGI: 3.18 µM
[35]
  TGI: 23.9 µM
[36]
  TGI: 7.64 µM
[37]
  TGI: 28.5 µM
[38]
  TGI: 18.4 µM
[39]
  TGI: 11.4 µM
[40]
  TGI: > 45.2 µM
[41]
  TGI: 4.65 µM
[42]
  TGI: 25.9 µM
[43]
  TGI: 11.3 µM
[44]
  TGI: 26.1 µM
[45]
  TGI: 40.5 µM
[46]
  TGI: 14.2 µM
[47]
  TGI: 26 µM
[48]
  TGI: > 24.5 µM
[49]
  TGI: 22.1 µM
[50]
  TGI: 3.49 µM
[51]
  TGI: 23.8 µM
[52]
  TGI: 9.59 µM
[53]
  TGI: 26.9 µM
[54]
  TGI: 29.3 µM
[55]
  TGI: 15 µM
[56]
  TGI: 23.9 µM
[57]
  TGI: 15.5 µM
[58]
  TGI: 10.4 µM

## CCCN1CCC(c2ccc(Nc3nc(Nc4cc(F)ccc4C(N)=O)c4cc[nH]c4n3)c(OC)c2)CC1
[1]
  GI50: 3.13 µM
  TGI: 7.54 µM
[2]
  GI50: 2.71 µM
  TGI: 5.84 µM
[3]
  GI50: 2.23 µM
  TGI: 7.79 µM
[4]
  GI50: 0.572 µM
  TGI: 5.2 µM
[5]
  GI50: 2.53 µM
  TGI: 5.5 µM
[6]
  GI50: 0.852 µM
  TGI: 5.86 µM
[7]
  GI50: 3.83 µM
  TGI: 8.91 µM
[8]
  GI50: 0.0185 µM
  TGI: 4.23 µM
[9]
  GI50: 2.88 µM
  TGI: 6.12 µM
[10]
  GI50: 4.4 µM
  TGI: 12.3 µM
[11]
  GI50: 0.365 µM
  TGI: 5.84 µM
[12]
  GI50: 4.19 µM
  TGI: 8.1 µM
[13]
  GI50: 3.62 µM
  TGI: 8.55 µM
[14]
  GI50: 1.16 µM
  TGI: 20.3 µM
[15]
  GI50: 1.58 µM
  TGI: 5.48 µM
[16]
  GI50: 3.66 µM
  TGI: 7.25 µM
[17]
  GI50: 3.84 µM
  TGI: 12.3 µM
[18]
  GI50: 0.0183 µM
  TGI: 1.78 µM
[19]
  GI50: 0.0565 µM
  TGI: 5.81 µM
[20]
  GI50: 4 µM
  TGI: 7.55 µM
[21]
  GI50: 3.03 µM
  TGI: 6.93 µM
[22]
  GI50: 3.13 µM
  TGI: 7.03 µM
[23]
  GI50: 1.86 µM
  TGI: 5.78 µM
[24]
  GI50: 2.89 µM
  TGI: 6.31 µM
[25]
  GI50: 1.02 µM
  TGI: 4.92 µM
[26]
  GI50: 3.42 µM
  TGI: 7.8 µM
[27]
  GI50: 0.0131 µM
  TGI: 4.54 µM
[28]
  GI50: 4.04 µM
  TGI: 8.82 µM
[29]
  GI50: 0.509 µM
  TGI: 1.97 µM
[30]
  GI50: 4.16 µM
  TGI: 8.19 µM
[31]
  GI50: 4.15 µM
  TGI: 9.73 µM
[32]
  GI50: 2.69 µM
  TGI: 9.53 µM
[33]
  GI50: 2.78 µM
  TGI: 9.48 µM
[34]
  GI50: 1.87 µM
  TGI: 7.44 µM
[35]
  GI50: 4.14 µM
  TGI: 9.17 µM
[36]
  GI50: 3.86 µM
  TGI: 8.37 µM
[37]
  GI50: 1.17 µM
  TGI: 5.07 µM
[38]
  GI50: 2.95 µM
  TGI: 6.76 µM
[39]
  GI50: 0.147 µM
  TGI: 1.43 µM
[40]
  GI50: 0.0124 µM
  TGI: 1.06 µM
[41]
  GI50: 0.00586 µM
  TGI: 0.126 µM
[42]
  GI50: 2.22 µM
  TGI: 6.5 µM
[43]
  GI50: 3.16 µM
  TGI: 9.56 µM
[44]
  GI50: 0.54 µM
  TGI: 15.1 µM
[45]
  GI50: 0.099 µM
  TGI: 3.04 µM
[46]
  GI50: 3.42 µM
  TGI: 6.69 µM
[47]
  GI50: 3.2 µM
  TGI: 8.37 µM
[48]
  GI50: 4.1 µM
  TGI: 13.1 µM
[49]
  GI50: 1.07 µM
  TGI: 6.33 µM
[50]
  GI50: 2.14 µM
  TGI: 6.54 µM
[51]
  GI50: 0.725 µM
  TGI: 8.18 µM
[52]
  GI50: 0.154 µM
  TGI: 4.68 µM
[53]
  GI50: 3.58 µM
  TGI: 7.44 µM
[54]
  GI50: 3.68 µM
  TGI: 12.1 µM
[55]
  GI50: 0.178 µM
  TGI: 3.61 µM
[56]
  GI50: 3.41 µM
  TGI: 6.63 µM
[57]
  GI50: 3.07 µM
  TGI: 7.52 µM
[58]
  GI50: 0.681 µM
  TGI: 2.8 µM
